Where a SMILES comes first, the peptide text is derived from it. [ ]: non-standard residue; d: D form. The star is where a group is joined. AMC = Cc1cc(=O)oc2cc(N*)ccc12; pGlu = O=C1CC[C@@H](C(=O)O)N1; Cbz = O=C(OCc1ccccc1)*
System: PrP^Sc formation in transiently transfected ScN2a cells
Format: cell-based, mouse

Row | Compound | Results (effect on transiently transfected ScN2a cells; inhibitory effect on PrP^Sc formation)
1 | 2′-O-Anthramiloy Indenosine 3′5′-Cyclic Monophosphate [Compound 40] | Negative
2 | 6-Morpholino-5-Nitroimidazol [Compound 66] | Negative
3 | CCCCC(NC(=O)CCl)C(=O)O (racemic) [Compound 6, Chloroacetyl-DL-Nortencine] | Negative
4 | CN1C(=O)C(CCCNC(=N)N)NC1=S.Cl (racemic) [Compound 34, MTH-DL-Arginine HCI] | Negative
5 | O=C(O)C(Cc1cnc[nH]1)N1C(=O)c2ccccc2C1=O (racemic) [Compound 45, N Phrhaloyl-DL-Histidine] | Negative
6 | O=C(O)/C=C/c1c[nH]cn1 [Compound 1, Urocanic Acid] | Negative
7 | Nc1ncnc2c1ncn2[C@H]1O[C@H](CO)[C@@H](O)[C@H]1O [Compound 3, α-Adenosine] | Negative
8 | O=P(O)(O)OC[C@H]1O[C@@H](n2cnc3c2ncn2ccnc32)[C@H](O)[C@@H]1O [Compound 7, 1, N6-Ethenoadenosine-5′-Monophosphate] | Positive
9 | NC[C@H]1O[C@H](O[C@H]2[C@H](O)[C@@H](O)[C@H](N)C[C@@H]2N)[C@H](N)[C@@H](O)[C@@H]1O [Compound 9, Neamine] | Negative
10 | Nc1ccn([C@@H]2O[C@H](CO)[C@@H](OP(=O)(O)OC[C@H]3O[C@@H](n4cnc5c(=O)[nH]c(N)nc54)[C@H](O)[C@@H]3O)[C@H]2O)c(=O)n1 [Compound 10, Cytidylyl (3′5′) Guanosine] | Negative
11 | Cn1c(=O)c2c(ncn2C)n(C)c1=O [Compound 13, Caffeine, reference compound] | Negative
12 | N=C(N)c1ccc(-c2cc3ccc(C(=N)N)cc3[nH]2)cc1 [Compound 14, 4′,6-Diamidino-2 Phenylindole] | Negative
13 | NCCC(O)C(=O)NC1CC(N)C(OC2OC(CN)C(O)[C@H](O)[C@@H]2N)[C@H](OC2O[C@H](CO)[C@@H](O)[C@@H]2O)[C@@H]1O.O=S(=O)(O)O.O=S(=O)(O)O (stereo partly drawn) [Compound 15, Butirosin Disulfate Salt, reference compound] | Negative
14 | CN(C)c1ncnc2c1ncn2[C@@H]1O[C@H](CO)[C@@H](N)[C@H]1O [Compound 16, Puromycin Aminonucleoside] | Negative
15 | CC(=O)O[C@@H]1[C@H](OC(C)=O)[C@@H](CO)O[C@H]1n1cnc2c(=O)[nH]c(N)nc21 [Compound 17, 2′3′-Di-O-Acetylguanoside] | Negative
16 | OC[C@H]1O[C@@H](n2cnc3cncnc32)[C@H](O)[C@@H]1O [Compound 18, Purine Riboside] | Positive
17 | NC[C@H]1O[C@H](O[C@H]2[C@H](O[C@@H]3O[C@H](CO)[C@@H](O)[C@H]3O)[C@@H](O)[C@H](N)C[C@@H]2N)[C@H](N)[C@@H](O)[C@@H]1O [Compound 21, Ribostamycin, reference compound] | Negative
18 | NC[C@@H]1CC[C@@H](N)[C@@H](O[C@H]2[C@H](O)[C@@H](O[C@H]3O[C@H](CO)[C@@H](O)[C@H](N)[C@H]3O)[C@H](N)C[C@@H]2N)O1 [Compound 22, Dibekacin, reference compound] | Negative
19 | CN[C@@H]1[C@@H](O)[C@@H](O[C@@H]2[C@@H](O)[C@H](O[C@H]3OC(CN)=CC[C@H]3N)[C@@H](N)C[C@H]2N)OC[C@]1(C)O [Compound 23, Sisomycin, reference compound] | Negative
20 | N=C(N)c1ccc(Oc2ccc(-c3cc4ccc(C(=N)N)cc4[nH]3)cc2)cc1 [Compound 25, Amidinophenyl (6 Amidino-2-indolyl)Phenyl Ether] | Negative
21 | Nc1ccn([C@@H]2O[C@H](COP(=O)(O)O[C@H]3[C@@H](O)[C@H](n4cnc5c(N)ncnc54)O[C@@H]3CO)[C@@H](O)[C@H]2O)c(=O)n1 [Compound 27, Adenylyl (3′5′)Cytidine] | Negative
22 | Nc1nc2c(ncn2[C@@H]2O[C@H](COP(=O)(O)O[C@@H]3[C@H](O)[C@@H](CO)O[C@H]3n3cnc4c(=O)[nH]c(N)nc43)[C@@H](O)[C@H]2O)c(=O)[nH]1 [Compound 28, Guanylyl (2′5′)Guanosine] | Negative
23 | Nc1ncnc2c1ncn2[C@@H]1O[C@H](CO)[C@H]2OP(=O)([O-])O[C@H]21.[Na+] [Compound 29, Adenosine 2′3′cyclic monophosphase sodium salt] | Negative

Row | Compound | Results (effect on transiently transfected ScN2a cells; inhibitory effect on PrP^Sc formation)
24 | CC(=O)O[C@@H]1[C@H](OC(C)=O)[C@@H](CO)O[C@H]1n1cnc2c(N)ncnc21 [Compound 32, 2′3′-Di-O-Acetyladenosine] | Positive
25 | O=P(O)(O)O[C@H]1[C@@H](O)[C@H](n2cnc3c(O)ncnc32)O[C@@H]1CO [Compound 36, Inosine 3′-Monophosphate] | Negative
26 | NC(=NO)c1nc[nH]c1N [Compound 37, Amino Imidazole Carobxamidoxime] | Negative
27 | NC(=O)NC(NC(N)=O)C(=O)O [Compound 38, Allentoic Acid] | Negative
28 | NCC[C@H](O)C(=O)N[C@@H]1C[C@H](N)[C@@H](O[C@H]2O[C@H](CN)[C@@H](O)[C@H](O)[C@H]2O)[C@H](O)[C@H]1O[C@H]1O[C@H](CO)[C@@H](O)[C@H](N)[C@H]1O [Compound 39, Amikacin, reference compound] | Negative
29 | NC(=O)c1ccc(C(=O)O)cc1C(=O)O [Compound 41, Trimellitic Acid Amide] | Negative
30 | [H]/N=C(/N)N[C@H]1[C@H](O)[C@@H](O)[C@H](O[C@@H]2O[C@@H](C)[C@](O)(C=O)[C@H]2O[C@@H]2O[C@@H](CO)[C@H](O)[C@@H](O)[C@@H]2NC)[C@@H](N/C(N)=N\[H])[C@@H]1O [Compound 42, Streptomycin, reference compound] | Negative
31 | CC1(C)C(=O)NC(=O)N1SN1C(=O)NC(=O)C1(C)C [Compound 44, 1,1, Thhiobis 5,5′ Dimethyl hydratoin] | Negative
32 | Nc1ccc(Cc2ccc(N)cc2[N+](=O)[O-])cc1 [Compound 47, 3 mitro 4,4′ methylamediamiline] | Negative
33 | O=C(NC(CO)Cc1c[nH]cn1)c1ccccc1 [Compound 48, n-alphabenzoyl-L-Histidinol] | Negative
34 | COc1ccc(OC)c(NC(=N)N)c1.O=C(O)O [Compound 51, 2,5 Dimethoxy-phenylguanidine Carbonate] | Negative
35 | Cc1cc(=O)oc2cc(NC(=O)[C@H](CCCNC(=N)N)NC(=O)[C@H](Cc3ccccc3)NC(=O)OCc3ccccc3)ccc12.Cl [Compound 53, Z-Phenyl-Arginyl-7-Amido-4-Methylcoumarin Hcl] (Cbz-Phe-Arg-{AMC}) | Negative
36 | Br.N=C(N)NCCC[C@H](NC(=O)OCc1ccccc1)C(=O)OCc1ccc([N+](=O)[O-])cc1 [Compound 54, Z-ARG-OBZL (P-NO2)HBR] | Negative
37 | Cl.NC(N)=NC(=O)c1nc(Cl)c(N)nc1N [Compound 69, Amiloride-HCI, reference compound] | Negative
38 | BOC-Val-Gly-Arg-βNa-AcOH [Compound 49] | Negative
39 | H-Ala-Arg-Oh Acetate [Compound 5] | Negative
40 | Hydroxyguanidino-purine Riboside [Compound 26] | Negative
41 | Leu-Asp-Val-Pro-Ser (LDVPS; printed: Leu-Asp-Val-Pro-Ser) [Compound 57] | Negative
42 | Naphtha (Terbutoxycarbonyl)-L-Arginine [Compound 2] | Negative
43 | PGlu-Gly-Arg-Phe Amide ([pGlu]GRF-NH2; SMILES N=C(N)NCCC[C@H](NC(=O)CNC(=O)[C@@H]1CCC(=O)N1)C(=O)N[C@@H](Cc1ccccc1)C(N)=O) [Compound 20] | Negative
44 | [Glu]-TRH [Compound 55] | negative
45 | [Mei(O)4, D-Lyss, Pho9]-Fragment 4-9 [Compound 30] | Negative

From patent publication US6365359B1 (The Regents of the University of California, priority 1997, dated 2002)
